We go through two molecules from patent publication US20150272979A1, “COMBINATION THERAPEUTIC COMPOSITION” (Hoffman La-Roche Inc., priority 2012, published 2015).

Series [1] relates to CYP isozymes including 3A4, 2C19, 1A2, 2D6, and 2C9. The series can be described thus: Cytochrome P450 phenotyping using chemical inhibitors. Type of series: in vitro ADME. As to conditions: early preclinical studies. The source says:
(§1) Therefore, a cytochrome P450 monooxygenase inhibitor in an amount effective to inhibit metabolism of the protease inhibitor could increase the bioavailability of Compound 2 compared to administration in the absence of the CYP inhibitor.

In series [2] the target is CYP3A4 (Homo sapiens, UniProt P08684). The series can be described thus: Metabolism by recombinant CYPs. In kind it is in vitro ADME.
CYP3A4, sequence (P08684 whole entry): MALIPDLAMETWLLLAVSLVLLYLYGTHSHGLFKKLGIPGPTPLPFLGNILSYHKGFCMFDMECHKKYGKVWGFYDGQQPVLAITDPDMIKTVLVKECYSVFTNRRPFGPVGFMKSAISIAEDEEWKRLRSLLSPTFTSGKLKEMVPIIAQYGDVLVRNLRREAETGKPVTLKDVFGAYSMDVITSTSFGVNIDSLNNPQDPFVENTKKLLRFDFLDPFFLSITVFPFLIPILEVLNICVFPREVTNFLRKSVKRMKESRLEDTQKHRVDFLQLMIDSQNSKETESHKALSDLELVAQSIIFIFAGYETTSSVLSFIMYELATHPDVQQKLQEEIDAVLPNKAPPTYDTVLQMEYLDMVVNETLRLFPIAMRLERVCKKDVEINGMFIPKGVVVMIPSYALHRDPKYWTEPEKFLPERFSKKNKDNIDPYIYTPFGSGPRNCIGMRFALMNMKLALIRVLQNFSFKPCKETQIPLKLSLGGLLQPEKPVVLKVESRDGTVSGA
Description: as §1

For series [3], the system named is HCV replication. As to conditions: general statement; cited from earlier work.

SMILES strings stand for the structures.

For `CC(C)(C)OC(=O)N[C@H]1CCCCC/C=C\[C@@H]2C[C@@]2(C(=O)NS(=O)(=O)C2CC2)NC(=O)[C@@H]2C[C@@H](OC(=O)N3Cc4cccc(F)c4C3)CN2C1=O` [Compound 2, (1S,4R,6S,14S,18R)-4-Fluoro-1,3-dihydro-isoindole-2-carboxylic acid 14-tert-butoxycarbonylamino-4-cyclopropanesulfonylaminocarbonyl-2,15-dioxo-3,16-diaza-tricyclo[14.3.0.04,6]nonadec-7-en-18-yl ester], the “CYP isozymes participating in metabolism” value in series [1] is “multiple CYP isozymes including 3A4, 2C19, 1A2, 2D6, and 2C9 participate in the metabolism”. Also, in series [2], the “Metabolism by recombinant CYPs” value is “only CYP3A4 metabolized Compound 2 to an extent that could influence the pharmacokinetics”. For the same molecule, the “Inhibition of HCV replication” value in series [3] is “effective in inhibiting HCV replication”.
As for `CS(=O)(=O)Nc1ccc2c(c1)S(=O)(=O)N=C(C1=C(O)C3C([C@@H]4CC[C@H]3C4)N(Cc3ccc(F)cc3)C1=O)N2` (stereo partly shown) [Compound 3], the “Inhibition of HCV replication” value in series [3] is given as “effective in inhibiting HCV replication”.
